The results in this text go back to article PMC8877008, “Synthesis and Structure–Activity Relationship Studies of Benzimidazole-4,7-dione-Based P2X3 Receptor Antagonists as Novel Anti-Nociceptive Agents” (Molecules, 2022).

Data set [1] is described as follows: Metabolic stability in microsomal fraction, mouse. The format is in vitro ADME.
Data set [2] is described as follows: Metabolic stability in microsomal fraction, rat. It is filed as in vitro ADME. Particulars: rat microsomal fraction, read-out: Metabolic Stability (Microsomal Fr.) % remaining after 30 min.
Data set [3] can be described thus: In vivo pharmacokinetic study in rats. As to conditions: male, SD, plasma, 10 mg/kg; oral administration, 10 mpk, rat. As to the method: Experiments were used to determine any changes during in vivo pharmacokinetics, such as absorption, distribution, metabolism, and excretion of compounds, which are correlated with drug efficacy and toxicity. Pharmacokinetic experiments using rats were mainly conducted using 8-week-old SD male rats (Osan, Kyungki-Do, Korea). A tube was inserted into the femoral vein, the intravenous administration group was administered through the tube, and the oral administration group was administered the drug orally using oral gavage (1–2 mL/kg). Blood collection for the drug was performed at fixed times ([…], 0.25, 0.5, 1, 2, 4, 6, 8, and 24 h) from the time when the tube was inserted into the femoral vein. Blood was centrifuged to separate plasma, and plasma and urine samples were pretreated (minimum 0.5 ng/mL and maximum 8000 ng/mL) using an appropriate organic solvent. For sample preparation, the working solution of rat blank plasma was spiked, followed by preparation of plasma samples with solid phase extraction. Next, the concentration of 100 μL eluent was analyzed by LC–MS/MS (Mass spectrometry 4000 Qtrap with HPLC, Agilent 1200, Santa Clara, CA, USA). The noncompartmental pharmacokinetic parameters were calculated from the blood concentration–time data of the drug analyzed using the noncompartmental analysis model of WinNonlin (Pharsight ver 6.4, Princeton, NJ, USA).

In a further data set the test system is CIPN rats. The data set can be described thus: Antiallodynic effect, cisplatin chemotherapy-induced peripheral neuropathy (CIPN) model, von Frey. The format is in vivo, male Sprague-Dawley rats. Particulars: intravenous 12 mg/kg, von Frey filaments, five rats. The source says:
The experimental protocol (CNUHIACUC-20039) was approved by the Institutional Animal Care and Use Committee of Chonnam National University Hospital. Animal models of neuropathic pain (NP) were constructed by spinal nerve ligation (SNL) or chemotherapeutics injection (chemotherapy-induced peripheral neuropathy, CIPN) in male Sprague-Dawley rats (weight, 150–180 g). Briefly, under sevoflurane anesthesia, the left L5 and L6 spinal nerves near the vertebral column were separated and tightly ligated using 6-0 silk. Cisplatin was administered intraperitoneally at 2 mg/kg once daily for 4 days. The paw withdrawal threshold (PWT) to mechanical stimuli was measured using calibrated 0.41–15.2 g von Frey filaments (Stoelting, Wood Dale, IL, USA), as described previously. […] The antiallodynic effects of the intravenous vehicle and LDD4692 (3mg/rat) were evaluated and expressed as the percentage of the maximal possible effect (% MPE). % MPE = [(post drug PWT − post injured baseline PWT)/(cutoff PWT − post injured baseline PWT)] × 100
For the analysis of antagonistic activities, all data were calculated by Origin Pro 9.1 software provided by Originlab and the fitting of graphs was proceeded by the growth/sigmoidal and hill1 process within no weights for data selections. For the analysis of the behavioral assessments of pain models, all data are expressed as mean ± SEM. […]

Usually share remaining stands for what is left of the initial amount, in per cent. A word on the AUC(0-inf): it is total exposure, with the tail of the curve extrapolated. Low values mean less exposure, high ones more exposure. As a reminder, the Cmax is the peak of the concentration-time curve. For orientation: Tmax means the time at which the peak concentration occurs. In general, half-life refers to how long it takes for the measured level to halve. `O=C1C(NC2CCN(C(=O)c3ccc(F)c(F)c3)CC2)=C(Cl)C(=O)c2[nH]c(C(F)(F)F)nc21` [14h, 6-Chloro-5-((1-(3,4-difluorobenzoyl)piperidin-4-yl)amino)-2-(trifluoromethyl)-1H-benzo[d]imidazole-4,7-dione]: the share remaining at 0.5 h in data set [1] (microsomal fraction, species not given, lowest of human, rat, mouse is mouse, read-out: Metabolic stability, % remaining after 30 min incubation (summary)) is > 92%. Also, in data set [1] (mouse, mouse microsomal fraction, read-out: Metabolic Stability (Microsomal Fr.) % remaining after 30 min), the amount remaining at 0.5 h was found to be 92.8%. Further, the share remaining at 0.5 h in data set [2] was > 99%. In addition, in data set [3], the AUC(0-inf) worked out at 250 ng·h/mL, the highest level (Cmax) was 40 ng/mL, the Tmax amounted to 0.33 h and the half-life was 7.58 h. Moreover, the “Maximal possible effect (% MPE), antiallodynic” value in the data set on CIPN rats is on record as 78%.
